The source of these data is patent publication US5756348A (Synaptic Pharmaceutical Corporation, priority 1994, dated 1998).

As a reminder, the Km is the substrate concentration at which the rate is half of its maximum. The IC50 is the concentration that gives 50% inhibition.

Assay [1] deals with T1, glycine transporter encoded by rB20a (Rattus norvegicus, UniProt P28572).
T1 construct: expressed in transfected cells
T1 sequence (P28572 1-638): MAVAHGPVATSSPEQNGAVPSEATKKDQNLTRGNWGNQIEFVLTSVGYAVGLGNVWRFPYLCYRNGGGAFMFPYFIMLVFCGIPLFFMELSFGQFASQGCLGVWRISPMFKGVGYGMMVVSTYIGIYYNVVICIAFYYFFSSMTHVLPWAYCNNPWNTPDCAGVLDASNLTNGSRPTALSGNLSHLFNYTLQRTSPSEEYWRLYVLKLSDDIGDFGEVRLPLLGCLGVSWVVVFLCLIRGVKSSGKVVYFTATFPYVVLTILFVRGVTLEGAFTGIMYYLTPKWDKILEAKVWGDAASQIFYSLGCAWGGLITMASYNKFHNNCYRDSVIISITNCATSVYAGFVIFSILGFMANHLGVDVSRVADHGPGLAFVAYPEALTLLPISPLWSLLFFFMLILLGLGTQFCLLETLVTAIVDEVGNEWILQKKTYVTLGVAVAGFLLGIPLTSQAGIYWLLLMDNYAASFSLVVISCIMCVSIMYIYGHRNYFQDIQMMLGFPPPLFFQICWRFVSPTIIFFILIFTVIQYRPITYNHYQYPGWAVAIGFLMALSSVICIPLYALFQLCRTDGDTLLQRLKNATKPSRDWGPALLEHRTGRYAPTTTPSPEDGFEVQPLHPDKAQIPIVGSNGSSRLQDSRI
Nature of the assay: Competition for [3H]glycine uptake by COS-7 cells transfected with rB20a. Type of assay: cell-based. Particulars: for inhibition at 1000 µM / inhibition at 10 µM / inhibition at 100 µM: COS-7, 10 min, read-out: % displacement of specific [3H]glycine uptake; for % displacement of specific [3H]glycine uptake: 50 nM [3H]glycine, 10 minutes, 37° C. Here is the method:
(§1) These two clones were constructed into a full-length clone (designated rB20a) by ligation at their internal Nco I sites and then cloned into the eukaryotic expression vector pSVL (Pharmacia LXB Biotechnology, Piscataway, N.J.). Transient transfection of COS cells was carried out using DEAE-dextran with DMSO according to the method of Lopata et al. (1984) with minor modifications. COS cells were grown in six-well plates (37° C.,5%CO2) in high glucose Dulbecco's modified Eagle medium supplemented with 10% bovine calf serum, 100 U/ml penicillin G, and 100 μg/ml streptomycin sulfate. Cells were routinely used two days after transfection for transport studies.
(§2) Plates were incubated at 37° C. for 10 or 20 minutes, then washed rapidly 3× with HBS. Cells were solubilized with 0.05% sodium deoxycholate/0.1N NaOH (1 ml/well), 0.5 ml aliquots were removed, neutralized with 1N HCl, and radioactivity was determined by scintillation counting. Protein was quantified in an aliquot of the solubilized cells with the Bradford Reagent (Biorad, Richmond, Calif.), according to the manufacturer's directions.
Nonspecific uptake was determined with 1 mM

Assay [2] deals with T1, glycine transporter encoded by rB20a. Nature of the assay: Transport of radiolabeled substrates by COS cells transiently transfected with rB20a. Type of assay: cell-based. As to conditions: data not shown. Here is the method: as §1, §2
The subject of assay [3] is high-affinity transporter present in glial cell cultures. As to conditions: read-out: Km for glycine; cited from earlier work.
For assay [4], the system named is high-affinity transporter in rat brain synaptosomes. As to conditions: read-out: Km for glycine; cited from earlier work.

As to `NC[C@H](O)c1ccc(O)c(O)c1` [(-)-norepinephrine], in assay [1], the inhibition at 1000 µM was 0%.

For the molecule `NCCCC(=O)O` [GABA, gamma-aminobutyric acid], the inhibition at 1000 µM in assay [1] came to 0%.

Regarding `C[C@H](N)C(=O)O` [L-alanine], the inhibition at 1000 µM in assay [1] amounted to 2%.

With `N[C@@H](CCC(=O)O)C(=O)O` [L-glutamate], in assay [1], the inhibition at 1000 µM amounted to 0%.

Regarding `N[C@@H](CO)C(=O)O` [L-serine], in assay [1], the inhibition at 1000 µM came out at 4%. Further, the “% displacement of specific [3H]glycine uptake” value (“% displacement of specific” for short) in assay [1] (inhibitor 1 mM) is listed as “Neither α-(methylamino) isobutyric acid (1 mM), a substrate for system A, nor L-serine (1 mM), a substrate for system ASC, significantly competed”.

Regarding `NCCc1c[nH]c2ccc(O)cc12` [[^3 H]5-HT], the “effect of rB20a expression on uptake of the radiolabeled substrate” value (“effect of rB20a expression” for short) in assay [2] is recorded as “did not significantly alter”.

For `NCCCC(=O)O` [[^3 H]GABA], the “effect of rB20a expression” value in assay [2] is given as “did not significantly alter”.

As for `NCCc1ccc(O)c(O)c1` [[^3 H]dopamine], the “effect of rB20a expression” value in assay [2] is given as “did not significantly alter”.

Consider `NCCc1cnc[nH]1` [[^3 H]histamine], for which the “effect of rB20a expression” value in assay [2] is “did not significantly alter”.

Consider `[3H][C@](O)(CN)c1ccc(O)c(O)c1` [[^3 H]norepinephrine], for which the “effect of rB20a expression” value in assay [2] was “did not significantly alter”.

In the case of `N[C@@H](Cc1ccc(O)cc1)C(=O)O` [[^3 H]tyrosine], in assay [2], the “effect of rB20a expression” value is recorded as “did not significantly alter”.

For the molecule `NCCc1ccc(O)c(O)c1` [dopamine], in assay [1], the inhibition at 1000 µM came out at 0%.

As for `CCOC(=O)CN` [glycine ethyl ester], in assay [1], the inhibition at 10 µM was determined as 0%, the inhibition at 100 µM came to 0% and the inhibition at 1000 µM was found to be 32%. For the same molecule, in assay [1] (inhibitor 10 μM), the “% displacement of specific” value is reported as “no inhibition”. The “% displacement of specific” value in assay [1] (inhibitor 100 μM) is listed as “no inhibition”.

On to `COC(=O)CN` [glycine methyl ester], for which, in assay [1], the inhibition at 10 µM is 0%, the inhibition at 100 µM came to 0% and the inhibition at 1000 µM turned out to be 42%. Moreover, in assay [1] (inhibitor 10 μM), the “% displacement of specific” value is given as “no inhibition”. The “% displacement of specific” value in assay [1] (inhibitor 100 μM) is “no inhibition”.

Take `NCC(=O)O` [glycine]: the inhibition at 1000 µM in assay [1] worked out at 100%. Besides, the Km in assay [3] is 95 µM; in assay [4], 50 µM.

For `NCCc1c[nH]cn1` [histamine], the inhibition at 1000 µM in assay [1] stood at 0%.

For `CNCC(=O)O` [sarcosine, N-methylglycine], in assay [1], the inhibition at 10 µM is 23%, the inhibition at 100 µM turned out to be 64% and the inhibition at 1000 µM amounted to 100%. Besides, the IC50 in assay [1] (estimated from inhibition at three concentrations) was about 50 µM.

Take `CNC(C)(C)C(=O)O` [α-(methylamino)isobutyric acid]: the inhibition at 1000 µM in assay [1] was 3%. Moreover, the “% displacement of specific” value in assay [1] (inhibitor 1 mM) is given as “Neither α-(methylamino) isobutyric acid (1 mM), a substrate for system A, nor L-serine (1 mM), a substrate for system ASC, significantly competed”.

On to ^3 H]glutamate, for which the “effect of rB20a expression” value in assay [2] is recorded as “did not significantly alter”.
